Entries after “also recorded” stand apart in the source; their conditions may differ.

Assay [1] deals with human liver microtissues. The assay can be described thus: Long-term toxicity testing with human liver microtissues, 14 days treatment with 3 re-dosing. Format: cell-based. The note with it: 336 h, read-out: IC50 value of toxicity (cell death), dose-response.
In assay [2] the test system is 2D cultures of human hepatocytes. The assay can be described thus: Toxicity in 2D cultures of human hepatocytes. Format: cell-based. The note with it: Hepatocyte, read-out: calculated IC50 value in 2D cultures of human hepatocytes.
The test system of assay [3] is human liver microtissues. The assay can be described thus: Inflammation-mediated toxicity testing with human liver microtissues in presence and absence of LPS. Format: cell-based.
In the next assay the test system is IL-6 secretion. The assay can be described thus: Quantification of IL-6 secretion of liver microtissues by ELISA after LPS induction. It counts as cell-based, human. The note with it: hepatosphere induced for 48 h with 10 µg/ml LPS.

The IC50 is the concentration that inhibits the measured activity by half. On to `CC(=O)Nc1ccc(O)cc1` [acetaminophen], for which, in the assay with human liver microtissues [1], the IC50 was 754 µM.

In the case of `O=C(O)Cc1ccccc1Nc1c(Cl)cccc1Cl` [diclofenac], the IC50 in the assay with human liver microtissues [1] was 179 µM; in assay [2], 331 µM.

`N[C@@H]1[C@H]2CN(c3nc4c(cc3F)c(=O)c(C(=O)O)cn4-c3ccc(F)cc3F)C[C@@H]12` [trovafloxacin]: the IC50 with human liver microtissues [3] (absence of LPS (−LPS), read-out: IC50 (hepatotoxic threshold) of induced toxicity without LPS) worked out at 220 µM; in the assay on human liver microtissues [3] (presence of LPS (+LPS), read-out: IC50 (hepatotoxic threshold) of induced toxicity in the presence of LPS), 71 µM.

In the case of lipopolysaccharide [LPS], the “increase in IL-6 secretion” value with IL-6 secretion is on record as “tenfold increase; also recorded: elevated levels of IL-6 secretion”.

Values taken from patent US20230235277A1, “3D Tissue Culture Materials and Processes for Producing Same” (INSPHERO AG, priority 2014, published 2023).
